Experimental data from patent publication US8361715B2, “Method for suppressing a FRET signal, FRET signal suppressor agents and use in a method for multiplexing biological events” (CIS Bio International, priority 2006, dated 2013).

Assays:
[1] = tested on: trisbipyridine cryptate TBP; conditions: TBP donor, d2 acceptor; 20 mM; incubation 16 h at ambient temperature
Experimental: Two identical experiments aimed at detecting a GST-biotin protein were carried out. In each of the experiments, a particular rare earth complex was used as FRET donor: either the trisbipyridine cryptate TBP or a terbium chelate sold in a form conjugated to an anti-GST antibody by the company Invitrogen (Cat no. PV3568).
The biotinylated GST protein was dispensed into a 96-well plate. Its presence was detected by FRET between the donor (the TBP or the terbium chelate) (carried by an anti-GST antibody) and the d2 acceptor (carried by streptavidin), after incubation for 16 h at ambient temperature in the presence or absence of 20 mM of manganese chloride (MnCl2) or of EDTA. A time-resolved fluorescence measurement is carried out (td=50 μs, tg=400 μs) at 620 nm and 665 nm (respectively E620 and E665) on a Rubystar® machine (BMG Labtech). Based on the fluorescence intensity values, E620 and E665, the E665/E620 intensity ratio is calculated and multiplied by 10 000 for greater convenience. […] In order to compare the delta F values obtained in the various media for the same donor, said values are normalized relative to the delta F obtained in buffer (100%).

europium cryptate TBP = test: FRET between TBP donor and d2 acceptor (biotinylated GST detection) with uric acid; conditions: TBP donor, 60 μM, incubation 16 h at ambient temperature
Experimental: (§1) In each of the experiments, a particular rare earth complex was used as FRET donor: either the trisbipyridine cryptate TBP or a pyridine-bis(bipyridine) cryptate PBP4COOH of formula: […]
(§2) Its presence was detected via FRET between the donor (the TBP or PBP4COOH) (carried by the anti-GST antibody) and the d2 acceptor (carried by streptavidin), after incubation for 16 h at ambient temperature in the presence or absence of 60 μM of uric acid. A time-resolved fluorescence measurement (td=50 μs, tg=400 μs) is carried out at 620 nm and 665 nm (E620 and E665, respectively) on a Rubystar® machine (BMG Labtech).
(§3) • 1.25 nM biotinylated GST; 2 nM anti-GST; 5 nM streptavidin; • 60 μm uric acid. Final reaction volume: 200 μl Buffer: 100 mM phosphate, pH 7.0, 0.10% BSA. Results

[2] = tested on: pyridine-bis(bipyridine) cryptate PBP4COOH; test: FRET between PBP4COOH donor and d2 acceptor (biotinylated GST detection) with uric acid; conditions: PBP4COOH donor, 60 μM, incubation 16 h at ambient temperature
Experimental: as §1, §2, §3

Molecule | FRET signal (normalized delta F) [1] | FRET signal inhibited (europium cryptate TBP) | FRET signal (normalized delta F) [2]
O=C(O)CN(CCN(CC(=O)O)CC(=O)O)CC(=O)O [EDTA] | does not modify | – | –
O=c1[nH]c(=O)c2[nH]c(=O)[nH]c2[nH]1 [uric acid] | – | more than 85% | does not modify
manganese chloride [MnCl2] | does not modify | – | –
